Laboratory results published in US20070004692A1, “Preparations and therapy of intrathecal inflammatory disease” (priority 2005, published 2007).
Converted amounts (≈) assume the structure as drawn. Marks after values point to notes of the source that are not given here.

Legend:
[1] = Solubility in water at room temperature
[2] = Blood glucose with glucose oxidase reagent strips in the MCAO animals of Example 5; details: intrathecal 0.012 mg/kg; venous blood preoperatively, prior to, 2 h and 24 h after administration; versus saline control (FIG. 1)
Method: In the animals used in ‘Example 5’ additionally blood glucose was measured with glucose oxidase reagent strips (Accu-Chek® Sensor, Roche Diagnostik GmbH, Mannheim, Germany) using a drop of venous blood preoperatively, immediately prior to, at 2 hours and at 24 hours after Triamcinolone acetonide administration.

[3] = Physical stability of aqueous corticosteroid solutions (ethanol stock added to saline or x-ray contrast agent)
[4] = system: focal cerebral ischemia (middle cerebral artery occlusion); assay: Focal cerebral ischemia, intraluminal suture occlusion of the middle cerebral artery (MCAO); relative infarction volume by TTC staining; assay type: in vivo; details: for Relative infarction volume expressed as percent of the total brain volume of the right hemisphere, mean: 0.012 mg/kg intrathecal single dose (example 3), control 18.08, n 15
physchem = details: water
[5] = Isovist 300, time after mixing 0

Which solubility [1] does the source give for `CC1(C)O[C@@H]2C[C@H]3[C@@H]4CCC5=CC(=O)C=C[C@]5(C)[C@@]4(F)[C@@H](O)C[C@]3(C)[C@]2(C(=O)CO)O1` [Triamcinolone acetonide] here?
Its solubility is roughly 20 µg/mL (≈ 46 µM).

What about the “effect on blood glucose” value [2] of the same compound?
Its value is “does not cause any additional effect”.

And the “Physical stability (appearance)” value ([3]; Isovist 300, 2 h after mixing)?
Its value is “clear”.

What about the “Physical stability (appearance)” value ([3]; Isovist 300, 48 h after mixing) of the same compound?
Its value is “fine particles”.

What about the “Physical stability (appearance)” value [3, 5] of the same compound?
Its value is “clear”.

What about the “Physical stability (appearance)” value ([3]; Saline, time after mixing 0) of the same compound?
Its value is “clear (?)”.

And the “Physical stability (appearance)” value ([3]; Ultravist 370, 2 h after mixing)?
Its value is “clear”.

What about the “Physical stability (appearance)” value ([3]; Ultravist 370, 48 h after mixing) of the same compound?
The value was “clear”.

And the “Physical stability (appearance)” value ([3]; Ultravist 370, time after mixing 0)?
Its value is “clear”.

What about the “Relative infarction volume expressed as percent of the total brain volume of the right hemisphere, mean” value ([4]; drug administration 30 Min after MCAO) of the same compound?
The value was 12.86* percent.

And the “Relative infarction volume expressed as percent of the total brain volume of the right hemisphere, mean” value ([4]; drug administration 1 h after MCAO)?
Its value is 9.68** percent.

And the “Relative infarction volume expressed as percent of the total brain volume of the right hemisphere, mean” value ([4]; drug administration 2 h after MCAO)?
The value was 10.57* percent.

And the “Relative infarction volume expressed as percent of the total brain volume of the right hemisphere, mean” value ([4]; drug administration 4 h after MCAO)?
The value was 9.05** percent.

And the “reduction in infarction size compared to controls” value ([4]; 0.012 mg/kg intrathecally, preparation of example 2, 30 minutes after MCA occlusion)?
The value was 33%.

What about the “infarction volume (percent of the total brain volume of the right hemisphere)” value ([4]; 0.012 mg/kg intrathecally, preparation of example 2, 30 minutes after MCA occlusion, sacrificed 24 h after MCAO, controls 20.0±8.0%, p=0.02) of the same compound?
Its value is 13.4±6.5%.

Which results are given for `C[C@@H]1C[C@H]2[C@@H]3CCC4=CC(=O)C=C[C@]4(C)[C@@]3(F)[C@@H](O)C[C@]2(C)[C@@]1(O)C(=O)CO` [Dexamethasone, dexamethasone]?
Physical stability (appearance) ([3]; Isovist 300, 2 h after mixing): clear; Physical stability (appearance) ([3]; Isovist 300, 48 h after mixing): clear; Physical stability (appearance) [3, 5]: clear; Physical stability (appearance) ([3]; Saline, 2 h after mixing): clear; Physical stability (appearance) ([3]; Saline, time after mixing 0): clear; Physical stability (appearance) ([3]; Ultravist 300, 2 h after mixing): clear; Physical stability (appearance) ([3]; Ultravist 300, 48 h after mixing): clear; Physical stability (appearance) ([3]; Ultravist 300, time after mixing 0): clear; solubility (physchem): ~85 µg/mL (≈ 217 µM)
